“And” between values parts separate entries of the source, which are not always exact repeats. Equal entries are not always repeated.
Molecular target: T1, chymotrypsin-like activity of the 20S proteasome (Homo sapiens, UniProt P20618+P28074)
T1 construct: purified human placenta 20S proteasome; tissue Diabetes Forschungsinstitut, Düsseldorf, Germany; host or cells: human placenta
Experiment: Inhibition of the chymotrypsin-like activity of the 20S proteasome (Suc-LLVY-AMC hydrolysis)
Type: biochemical
Details: purified human placenta 20S proteasome, Suc-LLVY-AMC substrate, read-out: IC50 [μM] (results of one or two experiments)
Text: It is based on the hydrolysis of the fluorogenic peptide Suc-LLVY-AMC (Succinyl-leucine-leucine-vatine-tyrosine-7-amino-4-methyl-coumarin), which is cleaved exclusively at the Y-AMC bond by the 20S proteasome. Hydrolysis of this peptide is accompanied by an increase in fluorescence intensity (λex (excitation wavelength): 355 nm; μem (emission wavelength): 460 nm) due to release of the […] that accompanies diffusion apart of the hydrolysis product Suc-LLVY.
2 μl of a 1 mM solution of a test compound in DMSO (dimethylsulfoxide, 20 μM final concentration in the well) are preincubated for 60 min at room temperature in black 96-well microtiter plates together with a mixture of 1 μl purified human placenta 20S proteasome (Diabetes Forschungsinstitut, DÜsseldorf, Germany; about 100 ng proteasome, depending on the proteasome preparation) and 47 μl buffer-Ca (5 mM CaCl2, 20 mM Tris/HCl (Tris-(hydroxymethyl)-amino-methane hydrochloride) pH 8.0). 3 μl of a 2.67 mM solution of Suc-LLVY-AMC (Bachem, Switzerland) in DMSO (80 μM final concentration in the well) and 47 μl buffer-Ca are mixed and added. The resulting mixture is incubated for 3-24 h at 37° C. If desired, proteolysis of the substrate can be stopped by addition of 50 μl stop solution (100 mM monochloroacetic acid, 130 mM NaOH, 100 mM acetic acid, pH=4.3). The fluorescence is monitored with a FLUOROSKAN ASCENT™ microtiter plate reader.
For each measurement series two control experiments are carried out: • 1.) 0% value: 2 μl DMSO are used in the above described assay instead of 2 μl of a 1 mM solution of a test compound in DMSO and 48 μl buffer-Ca instead of a mixture of 47 μl buffer-Ca and 1 μl purified proteasome. • 2.) 100% value: in the above described assay 2 μl DMSO are used instead of 2 μl of a 1 mM solution of the test compound in DMSO. Calculation [formula]
The IC50 value is defined as that concentration of a compound at which the remaining activity is 50% compared to the […].

IC50	Structure (SMILES)
0.0013 µM	COc1cc(C[C@H](Nc2cccc(-c3ccccc3)c2)C(=O)N[C@@H](C)C(=O)N[C@@H](CC(C)C)B2O[C@@H]3C[C@@H]4C[C@@H](C4(C)C)[C@]3(C)O2)cc(OC)c1OC [Example 37, (S)-2-(Biphenyl-3-ylamino)-N-{(S)-1-[(R)-3-methyl-1-((1S,2S,6R,8S)-2,9,9-trimethyl-3,5-dioxa-4-bora-tricyclo[6.1.1.0^2,6]dec-4-yl)-butylcarbamoyl]-ethyl}-3-(3,4,5-trimethoxy-phenyl)-propionamide]
0.0023 µM	COc1ccc(C[C@H](Nc2cccc(-c3ccccc3)c2)C(=O)N[C@@H](CC(C)C)C(=O)N[C@@H](CC(C)C)B2O[C@@H]3C[C@@H]4C[C@@H](C4(C)C)[C@]3(C)O2)cc1 [Example 35, (S)-2-[(S)-2-(Biphenyl-3-ylamino)-3-(4-methoxy-phenyl)-propionylamino]-4-methyl-pentanoic acid [(R)-3-methyl-1-((1S,2S,6R,8S)-2,9,9-trimethyl-3,5-dioxa-4-bora-tricyclo[6.1.1.0^2,6]dec-4-yl)-butyl]-amide]
0.0071 µM	COc1ccc(C[C@H](Nc2cccc(-c3ccccc3)c2)C(=O)N[C@H](C(=O)N[C@@H](CC(C)C)B2O[C@@H]3C[C@@H]4C[C@@H](C4(C)C)[C@]3(C)O2)C(C)C)c(OC)c1OC [Example 15, (S)-2-[(S)-2-(Biphenyl-3-ylamino)-3-(2,3,4-trimethoxy-phenyl)-propionylamino]-3-methyl-N-[(R)-3-methyl-1-((1S,2S,6R,8S)-2,9,9-trimethyl-3,5-dioxa-4-bora-tricyclo[6.1.1.0^2,6]dec-4-yl)-butyl]-butyramide]
0.0059 µM	CC(C)C[C@H](NC(=O)[C@@H](NC(=O)[C@H](Cc1ccc(OCc2ccccc2)cc1)NC(=O)Cc1cccc(OCc2ccccc2)c1)C(C)C)B(O)O [Example 30, (R)-1-((S)-2{(S)-3-(4-Benzyloxy-phenyl)-2-[2-(3-benzyloxy-phenyl)-acetylamino]-propionylamino}-3-methyl-butyrylamino)-3-methyl-butylboronic acid]
0.0093 µM	CC(C)C[C@H](NC(=O)[C@@H](NC(=O)[C@H](Cc1ccc(OCc2ccccc2)cc1)Nc1cccc(-c2ccccc2)c1)C(C)C)B1O[C@@H]2C[C@@H]3C[C@@H](C3(C)C)[C@]2(C)O1 [Example 17, (S)-2-[(S)-3-(4-Benzyloxy-phenyl)-2-(biphenyl-3-ylamino)-propionylamino]-3-methyl-N-[(R)-3-methyl-1-((1S,2S,6R,8S)-2,9-trimethyl-3,5-dioxa-4-bora-tricyclo[6.1.1.0^2,6]dec-4-yl)-butyl]-butyramide]
0.0019 µM	COc1ccc(C[C@H](Nc2cccc(-c3ccccc3)c2)C(=O)N[C@@H](C)C(=O)N[C@@H](CC(C)C)B2O[C@@H]3C[C@@H]4C[C@@H](C4(C)C)[C@]3(C)O2)c(OC)c1OC [Example 39, (S)-2-(Biphenyl-3-ylamino)-N-{(S)-1-[(R)-3-methyl-1-((1S,2S,6R,8S)-2,9,9-trimethyl-3,5-dioxa-4-bora-tricyclo[6.1.1.0^2,6]dec-4-yl)-butylcarbamoyl]-ethyl}-3-(2,3,4-trimethoxy-phenyl)-propionamide]
0.0021 µM	COc1cc(C[C@H](Nc2cccc(-c3ccccc3)c2)C(=O)N[C@H](C(=O)NC(CC(C)C)B2OC(C)(C)C(C)(C)O2)C(C)C)cc(OC)c1OC (stereo partly drawn) [Example 23, (S)-2-[(S)-2-(Biphenyl-3-ylamino)-3-(3,4,5-trimethoxy-phenyl)-propionylamino]-3-methyl-N-[3-methyl-1-(4,4,5,5-tetramethyl-[1,3,2]dioxaborolan-2-yl)-butyl]-butyramide]
0.0017 µM and 0.0014 µM	COc1ccc(C[C@H](NC(=O)Cc2cccc(Oc3ccccc3)c2)C(=O)N[C@H](C(=O)N[C@@H](CC(C)C)B2O[C@@H]3C[C@@H]4C[C@@H](C4(C)C)[C@]3(C)O2)C(C)C)c(OC)c1OC [Example 3, (S)-3-Methyl-N-[(R)-3-methyl-1-((1S,2S,6R,8S)-2,9,9-trimethyl-3,5-dioxa-4-bora-tricyclo[6.1.1.0^2,6]dec-4-yl)-butyl]-2-[(S)-2-[2-(3-phenoxy-phenyl)-acetylamino]-3-(2,3,4-trimethoxy-phenyl)-propionylamino]-butyramide]
0.0022 µM	COc1cc(C[C@H](Nc2cccc(-c3ccccc3)c2)C(=O)N[C@@H](CC(C)C)C(=O)N[C@@H](CC(C)C)B2O[C@@H]3C[C@@H]4C[C@@H](C4(C)C)[C@]3(C)O2)cc(OC)c1OC [Example 31, (S)-2-[(S)-2-(Biphenyl-3-ylamino)-3-(3,4,5-trimethoxy-phenyl)-propionylamino]-4-methyl-pentanoic acid [(R)-3-methyl-1-((1S,2S,6R,8S)-2,9,9-trimethyl-3,5-dioxa-4-bora-tricyclo[6.1.1.0^2,6]dec-4-yl)-butyl]-amide]
0.0026 µM	COc1ccc(C[C@H](Nc2cccc(-c3ccccc3)c2)C(=O)N[C@@H](CC(C)C)C(=O)N[C@@H](CC(C)C)B2O[C@@H]3C[C@@H]4C[C@@H](C4(C)C)[C@]3(C)O2)cc1OC [Example 33, (S)-2-[(S)-2-(Biphenyl-3-ylamino)-3-(3,4-dimethoxy-phenyl)-propionylamino]-4-methyl-pentanoic acid [(R)-3-methyl-1-((1S,2S,6R,8S)-2,9,9-trimethyl-3,5-dioxa-4-bora-tricyclo[6.1.1.0^2,6]dec-4-yl)-butyl]-amide]
0.0017 µM	COc1cc(C[C@H](Nc2cccc(-c3ccccn3)c2)C(=O)N[C@H](C(=O)N[C@@H](CC(C)C)B(O)O)C(C)C)cc(OC)c1OC [Example 14, (R)-3-Methyl-1-[(S)-3-methyl-2-[(S)-2-(3-pyridin-2-yl-phenylamino)-3-(3,4,5-trimethoxy-phenyl)-propionylamino]-butyrylamino)-butylboronic acid]
0.0028 µM and 0.0021 µM	COc1cc(C[C@H](Nc2cccc(-c3ccccc3)c2)C(=O)N[C@H](C(=O)N[C@@H](CC(C)C)B(O)O)C(C)C)cc(OC)c1OC [Example 2, (R)-1-{(S)-2-[(S)-2-(Biphenyl-3-ylamino)-3-(3,4,5-trimethoxy-phenyl)-propionylamino]-3-methyl-butyrylamino}-3-methyl-butylboronic acid]
0.0017 µM	COc1cc(C[C@H](Nc2cccc(-c3ccccc3)c2)C(=O)N[C@@H](C)C(=O)N[C@@H](CC(C)C)B(O)O)cc(OC)c1OC [Example 38, (R)-1-{(S)-2-[(S)-2-(Biphenyl-3-ylamino)-3-(3,4,5-trimethoxy-phenyl)-propionylamino]-propionylamino}-3-methyl-butylboronic acid]
0.0022 µM	COc1ccc(C[C@H](Nc2cccc(-c3ccccc3)c2)C(=O)N[C@@H](C)C(=O)N[C@@H](CC(C)C)B(O)O)c(OC)c1OC [Example 40, (R)-1-{(S)-2-[(S)-2-(Biphenyl-3-ylamino)-3-(2,3,4-trimethoxy-phenyl)-propionylamino]-propionylamino}-3-methyl-butylboronic acid]
0.0046 µM and 0.0024 µM	COc1cc(C[C@H](Nc2cccc(-c3ccccc3)c2)C(=O)N[C@H](C(=O)N[C@@H](CC(C)C)B2O[C@@H]3C[C@@H]4C[C@@H](C4(C)C)[C@]3(C)O2)C(C)C)cc(OC)c1OC [Example 1, (S)-2-[(S)-2-(Biphenyl-3-ylamino)-3-(3,4,5-trimethoxy-phenyl)-propionylamino]-3-methyl-N-[(R)-3-methyl-1-((1S,2S,6R,8S)-2,9,9-trimethyl-3,5-dioxa-4-bora-tricyclo[6.1.1.0^2,6]dec-4-yl)-butyl]-butyramide]
0.0008 µM	COc1ccc(C[C@H](NC(=O)CCc2ccccc2)C(=O)N[C@@H](C)C(=O)N[C@@H](CC(C)C)B2O[C@@H]3C[C@@H]4C[C@@H](C4(C)C)[C@]3(C)O2)c(OC)c1OC [Example 47, (S)-N-{(S)-1-[(R)-3-Methyl-1-((1S,2S,6R,8S)-2,9,9-trimethyl-3,5-dioxa-4-bora-tricyclo[6.1.1.0^2,6]dec-4-yl)-butylcarbamoyl]-ethyl}-2-(3-phenyl-propionylamino)-3-(2.3.4 trimethoxy-phenyl)-propionamide]
0.001 µM	COc1ccc(C[C@H](NC(=O)Cc2cccc(Oc3ccccc3)c2)C(=O)N[C@H](C(=O)N[C@@H](CC(C)C)B(O)O)C(C)C)cc1OC [Example 26, (R)-1-((S)-2-{(S)-3-(3,4-Dimethoxy-phenyl)-2-[2-(3-phenoxy-phenyl)-acetylamino]-propionylamino}-3-methyl-butyrylamino)-3-methyl-butylboronic acid]
0.0028 µM and 0.0045 µM	COc1ccc(C[C@H](Nc2cccc(-c3ccccc3)c2)C(=O)N[C@H](C(=O)N[C@@H](CC(C)C)B(O)O)C(C)C)cc1 [Example 8, (R)-1-{(S)-2-[(S)-2-(Biphenyl-3-ylamino)-3-(4-methoxy-phenyl)-propionylamino]-3-methyl-butyrylamino}-3-methyl-butylboronic acid]
